Data: US10864212B2, “Compositions and methods for treating retinal degradation” (University of Kentucky Research Foundation, priority 2013, dated 2020)

Target: T1, rat P2X7 receptor (Rattus norvegicus, UniProt Q64663)
T1 construct: expressed in transfected cells
T1 sequence (Q64663 1-595): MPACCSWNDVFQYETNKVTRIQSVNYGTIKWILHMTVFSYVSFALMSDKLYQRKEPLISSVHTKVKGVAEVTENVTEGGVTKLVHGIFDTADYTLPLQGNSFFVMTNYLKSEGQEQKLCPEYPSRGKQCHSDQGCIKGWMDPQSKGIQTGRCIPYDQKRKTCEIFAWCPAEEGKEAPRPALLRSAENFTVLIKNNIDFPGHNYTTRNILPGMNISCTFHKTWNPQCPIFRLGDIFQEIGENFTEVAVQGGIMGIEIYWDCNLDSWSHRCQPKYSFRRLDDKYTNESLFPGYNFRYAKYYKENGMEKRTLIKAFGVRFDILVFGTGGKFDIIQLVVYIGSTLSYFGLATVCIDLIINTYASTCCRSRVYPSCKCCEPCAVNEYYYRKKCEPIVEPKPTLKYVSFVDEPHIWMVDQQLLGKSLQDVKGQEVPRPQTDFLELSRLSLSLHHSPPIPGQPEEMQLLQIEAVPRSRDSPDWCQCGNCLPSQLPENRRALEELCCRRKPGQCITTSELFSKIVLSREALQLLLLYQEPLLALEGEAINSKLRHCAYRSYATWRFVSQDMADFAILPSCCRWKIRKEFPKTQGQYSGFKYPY
Test: Patch clamp analysis of P2X7 cation channel function, HEK293 stable cell line expressing rat P2X7 receptor
Type: cell-based

## Cc1cn([C@H]2C=C[C@@H](CO)O2)c(=O)[nH]c1=O [d4T, 2′3′ dideoxythymidine]
  P2X7 cation channel function (patch clamp): did not significantly modulate P2X7 cation channel function
